Several values for one entry are separate records, joined by “and”; a condition that tells them apart may be missing. Equal entries are not always repeated. One block for each compound: values may come before it.
Assays:
Type in all cases: biochemical
BRISC [1] = target: T1, BRISC (Homo sapiens, UniProt P46736+Q15018+Q9NXR7); test: Compound library screening and hit validation (IQF diubiquitin, 1 nM BRISC); settings: for BRISC, normalised activity (Ext. 1a): two replicate columns
T1 construct: made in house; host or cells: Spodoptera frugiperda (Sf9) insect cells, MultiBac
Method: (§1) Assays were performed in 384-well black flat-bottom low-flange plates (Corning, 35373) in buffer containing 50 mM HEPES–NaOH pH 7.0, 100 mM NaCl, 1 mg ml^−1 BSA, 1 mM DTT and 0.03% v/v Brij-35. Then, 10 μl of twofold concentrated enzyme stock was dispensed, followed by transfer of 200 nl of compounds (1 mM stock) using a 384-pin tool and a 15-min incubation at room temperature. Then, 10 μl of twofold concentrated substrate stock was added and the reaction was monitored by measuring fluorescence intensity (excitation, 540 nm; emission, 580 nm) after 20-min incubation at room temperature and ~50% of substrate was consumed. Orthogonal assays for verification of H20 and P12 hit compounds using USP2 (100 nM) and trypsin (125 nM) were performed in identical conditions.

BRISC [2] = target: T1, BRISC; test: BRISC DUB activity assay (IQF K63-linked diubiquitin); settings: for Mean V0: Fig. 1d; for IC50: IQF K63-linked diubiquitin substrate, read-out: IC50, inhibition of BRISC DUB activity
Method: (§2) IQF assays were performed in DUB reaction buffer containing 50 mM HEPES–NaOH pH 7.0, 100 mM NaCl, 0.1 mg ml^−1 BSA, 1 mM DTT and 0.03% v/v Brij-35. […] The final concentration of BRISC WT, all BRISC mutants, HsBRISCΔLoop, MmBRISC and DrBRISCΔNΔC was 1 nM. Other enzymes were tested at the following concentrations: 5 nM ARISC (FL), 10 nM CfBRISCΔNΔC, 250 nM AMSH* (ref. [43]), 500 nM USP2 and 1 μM trypsin (Sigma, 9002-07-7). For Michaelis–Menten experiments, 1 nM BRISC with 0–1 μM IQF K63-linked diubiquitin substrate was used. Michaelis–Menten analyses and Lineweaver–Burk plots were calculated using GraphPad Prism (version 9.0).
(§3) To assess enzymatic activity, BRISC complexes were diluted to concentrations between 1 nM and 50 nM. […] Then, 20-μl enzyme reactions were carried out in 384-well black flat-bottom low-flange plates (Corning, 35373). DUB activity was measured using IQF K63-linked diubiquitin (LifeSensors, DU6303) at 50 nM. Cleaved diubiquitin was monitored by measuring fluorescence intensity (excitation, 544 nm; emission, 575 nm; dichroic mirror, 560 nm). Fluorescence intensity was measured every minute for 30 min at 30 °C. Fluorescence intensity units were plotted against time to generate a linear reaction progress curve, where the initial velocity (V0) corresponds to the gradient of the curve (typically achieved within 15 min). IC50 values were calculated using the GraphPad Prism (version 9.0) built-in dose–response equation for inhibitor concentration versus response (variable slope).

USP2 = target: T2, USP2 (Homo sapiens, UniProt O75604); test: USP2 IQF diubiquitin selectivity assay; settings: for USP2, normalised activity (Ext. 1a): two replicate columns
T2 construct: His (N, cleaved yes); host or cells: Escherichia coli BL21(DE3)
T2 sequence (O75604 258-605 limits assumed): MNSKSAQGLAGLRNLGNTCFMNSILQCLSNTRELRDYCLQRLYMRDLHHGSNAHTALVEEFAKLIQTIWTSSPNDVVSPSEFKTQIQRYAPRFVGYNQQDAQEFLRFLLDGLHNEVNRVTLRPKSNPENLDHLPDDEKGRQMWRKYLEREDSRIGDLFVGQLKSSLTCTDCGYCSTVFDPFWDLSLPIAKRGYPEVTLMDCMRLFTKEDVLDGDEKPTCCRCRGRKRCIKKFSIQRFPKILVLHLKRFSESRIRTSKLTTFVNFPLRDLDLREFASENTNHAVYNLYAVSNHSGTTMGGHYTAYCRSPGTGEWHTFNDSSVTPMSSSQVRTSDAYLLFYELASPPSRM
Method: as §1, with “BRISC DUB activity was measured at room temperature using 1 nM BRISC and 500 nM IQF diubiquitin K63 substrate (LifeSensors, DU6303) in the presence of DMSO and compounds at 10 μM (final concentrations). Assays” for “Assays”
as §2, §3

trypsin = test: Trypsin IQF diubiquitin selectivity assay; settings: for TRYPSIN, normalised activity (Ext. 1a): two replicate columns
Method: as §1, with “BRISC DUB activity was measured at room temperature using 1 nM BRISC and 500 nM IQF diubiquitin K63 substrate (LifeSensors, DU6303) in the presence of DMSO and compounds at 10 μM (final concentrations). Assays” for “Assays”
as §2, §3

[3] = log [compound (μM)] 0.1938, listed as P12
[4] = log [compound (μM)] 0.4949, listed as P12
[5] = log [compound (μM)] 0.7959, listed as P12
[6] = log [compound (μM)] 1.0969, listed as P12
[7] = log [compound (μM)] 1.3979, listed as P12
[8] = log [compound (μM)] 1.6990, listed as P12
[9] = log [compound (μM)] 2.0000, listed as P12
[10] = log [compound (μM)] -0.1072, listed as P12
[11] = log [compound (μM)] -0.4082, listed as P12
[12] = log [compound (μM)] -0.7093, listed as P12
[13] = log [compound (μM)] -1.0103, listed as P12
[14] = log [compound (μM)] -2.0103, normalisation point

SMILES: O=C(NC1CCNCC1)c1n[nH]cc1NC(=O)c1c(Cl)cccc1Cl [AT7519 (Synkinase)]
normalised V0, Mean (BRISC [1]; log[compound (μM)] 0.0000): 0.9360
normalised V0, Mean (BRISC [1]; log[compound (μM)] 1.0000): 0.9184
normalised V0, Mean (BRISC [1]; log[compound (μM)] 1.3010): 0.8902
normalised V0, Mean (BRISC [1]; log[compound (μM)] 1.6990): 0.8666
normalised V0, Mean (BRISC [1]; log[compound (μM)] 2.0000): 0.8425
normalised V0, Mean (BRISC [1]; log[compound (μM)] -3.0000, normalisation point): 1

SMILES: O=C(NC1CCNCC1)c1n[nH]cc1NC(=O)c1c(Cl)cccc1Cl [AT7519, N-(4-piperidinyl)-4-(2,6-dichlorobenzoylamino)-1H-pyrazole-3-carboxamide, reference compound]
inhibition of BRISC DUB activity (in words) (BRISC [2]; IQF diubiquitin assay): neither inhibited

SMILES: O=C(NC1CCNCC1)c1n[nH]cc1NC(=O)c1c(Cl)cccc1Cl [AT7519 (Sellekchem)]
normalised V0, Mean (BRISC [1]; log[compound (μM)] 0.0000): 0.9555
normalised V0, Mean (BRISC [1]; log[compound (μM)] 0.6990): 1.0013
normalised V0, Mean (BRISC [1]; log[compound (μM)] 1.0000): 1.0109
normalised V0, Mean (BRISC [1]; log[compound (μM)] 1.4771): 0.9903
normalised V0, Mean (BRISC [1]; log[compound (μM)] 1.6990): 1.0462
normalised V0, Mean (BRISC [1]; log[compound (μM)] 2.0000): 1.0357
normalised V0, Mean (BRISC [1]; log[compound (μM)] 2.3010): 0.9736
normalised V0, Mean (BRISC [1]; log[compound (μM)] -1.0000): 1.0118
normalised V0, Mean (BRISC [1]; log[compound (μM)] -1.3010): 0.9395
normalised V0, Mean (BRISC [1]; log[compound (μM)] -4.0000): 1.0025

Further lines, with some results ahead:

Mean V0 (BRISC [2]; log[compound (μM)] 0.1938): 0.5385
Mean V0 (BRISC [2]; log[compound (μM)] 0.4949): 0.3840
Mean V0 (BRISC [2]; log[compound (μM)] 0.7959): 0.2986
Mean V0 (BRISC [2]; log[compound (μM)] 1.0969): 0.2014
Mean V0 (BRISC [2]; log[compound (μM)] 1.3979): 0.1684
Mean V0 (BRISC [2]; log[compound (μM)] 1.6990): 0.1492
Mean V0 (BRISC [2]; log[compound (μM)] 2.0000): 0.0500
Mean V0 (BRISC [2]; log[compound (μM)] 2.3010): 0.0048
Mean V0 (BRISC [2]; log[compound (μM)] -0.1072): 0.7414
Mean V0 (BRISC [2]; log[compound (μM)] -1.1072): 0.9992
Mean V0 (BRISC [2]; log[compound (μM)] -2.0000): 1.0000
SMILES: O=C(NC1CCNCC1)c1nn(C(=O)c2c(Cl)cccc2Cl)cc1NC(=O)c1c(Cl)cccc1Cl [JMS175-2]

inhibition of BRISC, hit validation dose response (BRISC [1]; BRISC 1 nM): inhibited
BRISC, normalised activity (Ext. 1a) (BRISC [1]; [3]): 0.9184 and 0.9164
BRISC, normalised activity (Ext. 1a) (BRISC [1]; [4]): 0.8260 and 0.8472
BRISC, normalised activity (Ext. 1a) (BRISC [1]; [5]): 0.7220 and 0.6802
BRISC, normalised activity (Ext. 1a) (BRISC [1]; [6]): 0.5475 and 0.6138
BRISC, normalised activity (Ext. 1a) (BRISC [1]; [7]): 0.4196 and 0.4274
BRISC, normalised activity (Ext. 1a) (BRISC [1]; [8]): 0.2277 and 0.3017
BRISC, normalised activity (Ext. 1a) (BRISC [1]; [9]): 0.1348 and 0.1662
BRISC, normalised activity (Ext. 1a) (BRISC [1]; [10]): 0.9841 and 0.9959
BRISC, normalised activity (Ext. 1a) (BRISC [1]; [11]): 1.0145 and 0.9950
BRISC, normalised activity (Ext. 1a) (BRISC [1]; [12]): 0.9264 and 1.0022
BRISC, normalised activity (Ext. 1a) (BRISC [1]; [13]): 0.9725 and 0.9468
BRISC, normalised activity (Ext. 1a) (BRISC [1]; [14]): 1.0000
inhibition of USP2 (USP2; IQF K63 diubiquitin substrate): inhibited
USP2, normalised activity (Ext. 1a) (USP2; [3]): 0.9446 and 0.9072
USP2, normalised activity (Ext. 1a) (USP2; [4]): 0.7366 and 0.8095
USP2, normalised activity (Ext. 1a) (USP2; [5]): 0.5989 and 0.5952
USP2, normalised activity (Ext. 1a) (USP2; [6]): 0.4578 and 0.4777
USP2, normalised activity (Ext. 1a) (USP2; [7]): 0.2821 and 0.3159
USP2, normalised activity (Ext. 1a) (USP2; [8]): 0.1157 and 0.1340
USP2, normalised activity (Ext. 1a) (USP2; [9]): 0.0697 and 0.0548
USP2, normalised activity (Ext. 1a) (USP2; [10]): 0.9974 and 0.9861
USP2, normalised activity (Ext. 1a) (USP2; [11]): 1.0145 and 0.9995
USP2, normalised activity (Ext. 1a) (USP2; [12]): 1.0193 and 1.0736
USP2, normalised activity (Ext. 1a) (USP2; [13]): 0.9978 and 1.0361
USP2, normalised activity (Ext. 1a) (USP2; [14]): 1.0000
SMILES: Nc1ccc(C(=O)Nc2cccc(-c3nc(N4CCOCC4)c4oc5ncccc5c4n3)c2)cn1 [YM201636, reference compound]
inhibition of trypsin (trypsin; IQF K63 diubiquitin substrate): inhibited
TRYPSIN, normalised activity (Ext. 1a) (trypsin; [3]): 0.9684 and 0.9837
TRYPSIN, normalised activity (Ext. 1a) (trypsin; [4]): 0.8434 and 0.8923
TRYPSIN, normalised activity (Ext. 1a) (trypsin; [5]): 0.6993 and 0.7044
TRYPSIN, normalised activity (Ext. 1a) (trypsin; [6]): 0.6731 and 0.7139
TRYPSIN, normalised activity (Ext. 1a) (trypsin; [7]): 0.4990 and 0.5130
TRYPSIN, normalised activity (Ext. 1a) (trypsin; [8]): 0.3403 and 0.4535
TRYPSIN, normalised activity (Ext. 1a) (trypsin; [9]): 0.3318 and 0.3209
TRYPSIN, normalised activity (Ext. 1a) (trypsin; [10]): 1.0347 and 0.9747
TRYPSIN, normalised activity (Ext. 1a) (trypsin; [11]): 1.0259 and 0.9266
TRYPSIN, normalised activity (Ext. 1a) (trypsin; [12]): 0.9472 and 0.9474
TRYPSIN, normalised activity (Ext. 1a) (trypsin; [13]): 0.9224 and 0.9184
TRYPSIN, normalised activity (Ext. 1a) (trypsin; [14]): 1.0000

IC50 (BRISC [2]): 21 µM
normalised V0, Mean (BRISC [2]; inhibitor 0.0268861 μM): 1
normalised V0, Mean (BRISC [2]; inhibitor 0.268861 μM): 1.082
normalised V0, Mean (BRISC [2]; inhibitor 0.806584 μM): 1.109
normalised V0, Mean (BRISC [2]; inhibitor 2.41975 μM): 1.0044
normalised V0, Mean (BRISC [2]; inhibitor 7.25926 μM): 1.002
normalised V0, Mean (BRISC [2]; inhibitor 21.7778 μM): 0.6484
normalised V0, Mean (BRISC [2]; inhibitor 65.3333 μM): 0.3437
normalised V0, Mean (BRISC [2]; inhibitor 196 μM): 0.2841
SMILES: C[N+]1(C)CCC(NC(=O)c2nn(C(=O)c3c(Cl)cccc3Cl)cc2NC(=O)c2c(Cl)cccc2Cl)CC1 [FX-25-2]

IC50 (BRISC [2]): 5.2 µM
normalised V0, Mean (BRISC [2]; inhibitor 0.0268861 μM): 1
normalised V0, Mean (BRISC [2]; inhibitor 0.268861 μM): 0.8889
normalised V0, Mean (BRISC [2]; inhibitor 0.806584 μM): 0.8346
normalised V0, Mean (BRISC [2]; inhibitor 2.41975 μM): 0.6971
normalised V0, Mean (BRISC [2]; inhibitor 7.25926 μM): 0.4496
normalised V0, Mean (BRISC [2]; inhibitor 21.7778 μM): 0.3208
normalised V0, Mean (BRISC [2]; inhibitor 65.3333 μM): 0.1744
normalised V0, Mean (BRISC [2]; inhibitor 196 μM): 0.1298
SMILES: CN1CCC(NC(=O)c2nn(C(=O)c3c(Cl)cccc3Cl)cc2NC(=O)c2c(Cl)cccc2Cl)CC1 [FX-25-1]
